The subject of one test is H524. The test can be described thus: Survival of cancer cells after gemcitabine, H524. In kind it is cell-based. The note with it: H524 SCLC in vitro model. As for the experimental part:
(§1) SCLC cell lines were incubated with dimethyl sulfoxide (vehicle control), SRA737 or Gemcitabine for 96 hours at nine distinct concentrations, with the maximum dose being 10 μM. A CellTiter-Glo luminescent cell viability assay (Promega) was performed after 96 hours of treatment as per the manufacturer's specifications. IC50 values were estimated using Drexplorer, as previously described (Tong P, Coombes K R, Johnson F M, Byers L A, Diao L, Liu D D, Lee J J, Heymach J V, Wang J. drexplorer: A tool to explore dose-response relationships and drug-drug interactions. Bioinformatics. 2015 May 15; 31(10):1692-4.)

In another test the test system is IFNβ, CXCL10 and CCL5. The test can be described thus: qPCR of IFNβ, CXCL10 and CCL5 in resected RPP tumors. Format: in vivo, mouse. The conditions noted are these: RPP tumors resected at Day 21; SRA737 2-days-on/5-days-off. The method, then: Data presented as mean±SD and p values by t-test * p<0.05, **p<0.01, ***p<0.001.
Real-time PCR was done using SYBR Select Master Mix (Life Technologies, cat #4472908) according to the manufacturer's protocol. Primers were purchased from Sigma Aldrich, Inc. Triplicate PCR reactions were run on ABI (7500 Fast Real Time PCR System). The comparative Ct method using the average 2ΔΔCT value for each set of triplicates was used, and the average of the biological replicates was calculated. Negative controls were included for every primer set, and GAPDH was used as the […].
A general note: Real-time PCR tracks product formation cycle by cycle.

The next test deals with RPP. The test can be described thus: Survival of cancer cells after gemcitabine, RPP. Format: cell-based, murine. The conditions noted are these: RPP SCLC in vitro model. As for the experimental part:
Data presented as mean±SD and p values by t-test ***p<0.001.
as §1

The subject of a further test is H209. Briefly: Survival of cancer cells after gemcitabine, H209. The note with it: H209 SCLC in vitro model. In kind it is cell-based. The method, then:
as §1

Another test has as its system RPP tumor. Briefly: Flank RPP (SCLC) tumor growth in B6129F1 immunocompetent mice. In kind it is in vivo, mouse. The note with it: anti-PD-L1 300 μg 1-day-on/6-days-off; LDG 40 mg/kg 1-day-on/6-days-off; SRA737 100 mg/kg 2-day-on/5-days-off. As for the experimental part: Tumors were evaluated twice weekly for the duration of the study. Tumor volumes were measured on all mice three times per week and calculated (width^2×length×0.4) using manual calipers. Once the average tumor size was in the range of 120-150 mm^3, mice were randomized into dosing groups using stratified sampling by assigning three animals per group for short-term reverse-phase protein array analysis and long-term treatment. Dosing schedules and duration varied depending on the study. Mice were weighed three times per week for the duration of the study, and a decrease in body weight >15% was considered indicative of a toxic dose. The Student t-test was used to determine statistical significance between compound- and vehicle-treated groups.
[…] 15A.

With `Nc1ccn([C@@H]2O[C@H](CO)[C@@H](O)C2(F)F)c(=O)n1` [gemcitabine], the “response of cancer cells to gemcitabine alone” value with H524, with RPP and with H209 was “resistant” throughout. In addition, in the test on IFNβ, CXCL10 and CCL5, the “expression of IFNβ, CCL5 and CXCL10” value was “Neither LDG nor SRA737 monotherapy (2-days-on/5-days-off) showed any significant effect”. For the same molecule, the “anti-tumor effect (tumor volume)” value in the test on RPP tumor is listed as “no significant anti-tumor effect”.
